Laboratory results as given in patent US20240139213A1 (priority 2017, published 2024).

Test system: Subjects with a variety of atopic conditions
Assay type: in vivo, human
Design: key: a score of 1 was given if symptoms worsened; a score of 2 was given if there was no change in symptoms; a score of 3 was given if there was some improvement in symptoms; a score of 4 was given if there were marked improvement in symptoms
Conditions: Subject D; eosinophilic esophagitis and GERD; Vitamin D3 4000 IU for 9 months without a probiotic compound

With `C=C1CC[C@H](O)C/C1=C/C=C1\CCC[C@]2(C)[C@@H]([C@H](C)CCCC(C)C)CC[C@@H]12` [Vitamin D3] the “score on 4 point scale” value was 2.
